Assay [1] has as its system mice with liver injury induced by carbon tetrachloride. Description: acute liver injury of mice induced by carbon tetrachloride. Type of assay: in vivo, Kunming mice. The settings on record: for serum ALT activity / serum AST activity: blood 12 h after CCl4; for serum ALT activity / serum AST activity / GSH-PX activity of liver tissue / MDA content of liver tissue: x ± s, n = 12; for GSH-PX activity of liver tissue / MDA content of liver tissue: liver homogenate. The procedure:
According to random number table, 60 male Kunming mice were divided into a normal control group, a model control group, a bifendate group, a heptapeptide large dose group and a heptapeptide small dose group, and the latter two groups were administered subcutaneously at 0.17 mg/kg and 0.085 mg/kg, respectively, once every two days for 7 d; the bifendate group was intragastric administered at 100 mg/kg once daily for 7 d; and the normal control group and model control group were administered subcutaneously with the same volume of physiological saline; after 1 h after the last administration, except for the normal control group, other groups were given olive oil solution comprising 0.15% carbon tetrachloride at 5 mL/kg by intraperitoneal injection. Each group was fasted but not restraint from water. Blood was taken from eyeball after 12 h, and the serum was separated for use. The mice were killed after the blood was taken, then dissected and the liver were taken out and homogenized for use. For mice from each group, the ALT, AST activities in the serum, and GSH-Px activity and MDA content in liver tissue were measured according to the kit instruction, and all data were expressed as mean±standard deviation (x±SD), and analysis of variance was used for the hypothesis test of mean value differences between each group.

The subject of the next assay is rats with liver fibrosis. Description: CCl4 liver fibrosis model of rats. Type of assay: in vivo, SD rats. The settings on record: for collogen area of liver tissue / serum ALT level / serum AST level: 8 weeks, x ± s, n = 12. On the procedure: 2. Methods: 48 rats were randomly divided into a control group, a model group, a heptapeptide large dose group and a heptapeptide small dose group, each group contains 12 rats. CCI4was formulated into 40% solution with olive oil, and the solution was then injected subcutaneously to the animals at 5 ml/kg twice a week for 8 weeks; the intervention group with GAGPHGG was given the heptapeptide subcutaneously (the concentrations was 0.12 mg/kg and 0.06 mg/kg, respectively, once every two days, 8 weeks) while the model was setting up. The animals of each group were killed at 48 h after the last injection of CCI4, and then serum and liver tissue were taken for detection. The serum ALT, AST and TGFβ1 level were measured according to the kit instruction, and the liver tissue sample was fixed with neutral formalin solution and imbedded with paraffin. 5 ttm tissue section was made by using glass slide coated with polylysine, and it was then stained with HE and Masson triplication collogen for histopathological examination.

Assay [2] relates to duck hepatitis B virus (DHBV). Type of assay: in vivo, Beijing ducks. The settings on record: for A (3 d after administration was terminated), serum DHBV-DNA level: 3 d after stop; for A (3 d after administration was terminated), serum DHBV-DNA level / A (5 d after administration), serum DHBV-DNA level / A (10 d after administration), serum DHBV-DNA level / A (before administration), serum DHBV-DNA level: x ± s, n = 6; for A (5 d after administration), serum DHBV-DNA level: day 5 of administration; for A (10 d after administration), serum DHBV-DNA level: day 10 of administration; for A (before administration), serum DHBV-DNA level: baseline before administration, absorbance 490 nm. On the procedure:
2.1 DHBV infection: Beijing ducks of one-day-old were administered from leg tibia (iv) with high DHBV-DNA positive duck serum. Blood was taken 7 d after infection, followed by the serum being separated and kept at -70° C.
2.2 experiment for pharmaceutical treatment: the DHBV infected ducks were divided into groups randomly, and for the heptapeptide administration groups, 0.5 mg/Kg and 1 mg/Kg were administered by subcutaneous injection, once every two days for 10 d, respectively. As for the virus control group, physiological saline was substituted for drugs. […] Venous blood was taken from the duck leg tibia before administration, on day 5 of administration, on day 10 of administration and 3 d after the administration was stopped. The serum was separated and kept at -70° C. for inspection.
2.3 detecting method: the duck serum for inspection above mentioned was taken and the dynamic level of DHBV-DNA in the serum was detected by simultaneous spotting each batch. DHBV-DNA probe was tagged with 32 p according to the instructions of nick translation kits, and then dot blot hybridization with the duck serum was carried out. The spots on the film were detected by radioautography, and the absorbance (A) (490 nm) was measured. Then density of serum DHBV-DNA was calculated by using the A value of hybridization spots as the level of DHBV-DNA in sample.
2.4 efficacy calculation: the x±s of serum DHBV-DNA levels at different time point for each group was calculated, and it is carried out to compare the states before and after administration for each group by using paired t-test. The inhibition ratio of DHBV-DNA was calculated and the dynamic change of the duck serum DHBV-DNA inhibition ratio for each group was compared. The administration groups were compared with the virus control group by using group t-test. The DHBV-DNA inhibition ratio=(A value before administration-A value after administration)/A value before administrationx100%.

Setting [3] is: 100 mg/kg intragastric once daily for 7 d.
Setting [4] is: 0.06 mg/kg s.c. once every two days.
Where [5] appears, read: 0.12 mg/kg s.c. once every two days.
The mark [6] stands for this setting: heptapeptide large dose, P<0.01.
[7] abbreviates: 0.5 mg/kg s.c. once every two days.
[8] abbreviates: 0.085 mg/kg s.c. once every two days for 7 d.
[9] abbreviates: 0.17 mg/kg s.c. once every two days for 7 d.
[10] abbreviates: large dose and small dose groups, P<0.01.

Read-outs that look alike come from different tables or passages of the source. Marks after values point to notes of the source that are not given here. Peptide text beside a SMILES is read from it.

For `COC(=O)c1cc(OC)c2c(c1-c1c(C(=O)OC)cc(OC)c3c1OCO3)OCO2` [biphenyldicarboxylate, bifendate, reference compound], in assay [1] (setting [3]), the “serum ALT activity” value is 92.36 ± 35.27 U/L, the “serum AST activity” value amounted to 156.24 ± 34.12 U/L, the “GSH-PX activity of liver tissue” value came out at 296.82 ± 18.31 µmol/g and the “MDA content of liver tissue” value was determined as 5.29 ± 1.25 µmol/g.
Regarding `C[C@H](NC(=O)CN)C(=O)NCC(=O)N1CCC[C@H]1C(=O)N[C@@H](Cc1c[nH]cn1)C(=O)NCC(=O)NCC(=O)O` [heptapeptide, Gly-Ala-Gly-Pro-His-Gly-Gly] (H-GAGPHGG-OH; N-terminus assumed), in the assay on rats with liver fibrosis (setting [4]), the “collogen area of liver tissue” value is recorded as 380.82 ± 78.89 μm^2, the “serum ALT level” value is reported as 148.24 ± 32.52 U/L and the “serum AST level” value is given as 180.35 ± 28.49 U/L. In the assay on rats with liver fibrosis (setting [5]), the “collogen area of liver tissue” value is 138.12 ± 62.58** μm^2, the “serum ALT level” value is on record as 96.37 ± 35.12 U/L and the “serum AST level” value is 108.75 ± 42.21 U/L. Further, in the assay with rats with liver fibrosis (setting [6]), the “mean area of liver collagen compared with model group” value was “also decreased significantly” and the “serum TGFβ1 level compared with model group” value is recorded as “decreased significantly”. Further, in the assay with rats with liver fibrosis (heptapeptide small dose group), the “serum TGFβ1 level and liver collagen area compared with model group” value is reported as “had a decreasing trend, but not statistically significant”. In the assay with rats with liver fibrosis (large dose (0.12 mg/kg) and small dose (0.06 mg/kg) groups, P<0.01), the “ALT and AST levels compared with model control group” value is on record as “significantly declined”. The “anti-liver fibrosis effect (conclusion)” value in the assay on rats with liver fibrosis (rats, CCl4) is given as “has some anti-liver fibrosis effect”. For the same compound, the “A (3 d after administration was terminated), serum DHBV-DNA level” value in assay [2] (0.5 mg/kg s.c. once every two days for 10 d) is 1.184 ± 0.19. Also, in assay [2] (setting [7]), the “A (5 d after administration), serum DHBV-DNA level” value stood at 1.239 ± 0.16 and the “A (10 d after administration), serum DHBV-DNA level” value turned out to be 1.198 ± 0.18. Further, the “inhibition of duck hepatitis B virus (conclusion)” value in assay [2] (1 mg/kg) was “can inhibit duck hepatitis B virus to some extent”. In addition, in assay [2] (1 mg/kg s.c. once every two days for 10 d, P < 0.01 vs control), the “A (3 d after administration was terminated), serum DHBV-DNA level” value amounted to 0.884 ± 0.16. Moreover, the “A (5 d after administration), serum DHBV-DNA level” value in assay [2] (1 mg/kg s.c. once every two days) is recorded as 1.204 ± 0.21. Further, the “A (10 d after administration), serum DHBV-DNA level” value in assay [2] (1 mg/kg s.c. once every two days, P < 0.01 vs control) was determined as 0.893 ± 0.13. In assay [2] (heptapeptide 0.5 mg/kg s.c. once every two days for 10 d), the “A (before administration), serum DHBV-DNA level” value is 1.286 ± 0.12. Also, the “A (before administration), serum DHBV-DNA level” value in assay [2] (heptapeptide 1 mg/kg s.c. once every two days for 10 d) was 1.274 ± 0.14. Also, in assay [1] (setting [8]), the “serum ALT activity” value amounted to 123.24 ± 19.73 U/L, the “serum AST activity” value came out at 186.97 ± 37.56 U/L, the “GSH-PX activity of liver tissue” value amounted to 267.18 ± 32.13 µmol/g and the “MDA content of liver tissue” value stood at 6.48 ± 1.65 µmol/g. Moreover, in assay [1] (setting [9]), the “serum ALT activity” value worked out at 86.52 ± 28.72 U/L, the “serum AST activity” value is listed as 148.62 ± 31.25 U/L, the “GSH-PX activity of liver tissue” value was 308.28 ± 38.54 µmol/g and the “MDA content of liver tissue” value worked out at 2.75 ± 1.36 µmol/g. In addition, the “serum ALT, AST activities compared with model control group” value in assay [1] (large dose (0.17 mg/kg) and small dose (0.085 mg/kg) groups, P <0.01) is reported as “declined significantly”. Moreover, in assay [1] (setting [10]), the “liver tissue GSH-Px activities compared with model control group” value is on record as “significantly higher than that of the model control group” and the “liver tissue MDA content compared with model control group” value is given as “significantly lower than that of the model control group”. In assay [1] (mice, carbon tetrachloride), the “protection for acute liver injury (conclusion)” value is “presents protection for the acute liver injury resulted from carbon tetrachloride”.

The record behind these values is patent publication US8957019B2, “Oligopeptide for treating liver fibrosis and/or treating hepatitis B and/or improving liver function” (priority 2011, dated 2015).
